Measurements published in paper PMC4912633, “Direct evidence of the molecular basis for biological silicon transport” (Nature Communications, 2016).

B1: PtSIT1 (Phaeodactylum tricornutum) (protein)
chain: MVDAGNVIKCAYSVGLLVFSTIIIMGLIFNEETKLSSDVNSAVAFVAIWGGVLWLTMVEGGQGSLVGLAPVNRELYKDSHPIAYKCTAIAHKGDNLDRYLLGRQFMVVLTVFVVNMSGGPLKDAELWGFPYVLTNMFLGSGLAMILFTAMVGQLNSQVNASLCMLDYINNYFALFTLWVAMAIEFSGLLHASYLVQMLVAALSGKKIESNEEPRNGLQNLFFWSRCLGSLAILGYCFAVTLAALFAGKTTMWEGVPPSVAVIVFFVLMSVVGLLEGMQIAFFAVAKIPKAERGDSVFAKKTCDLLFKGDGNNLPGFMIGRQLCVVSCMFFIARVTSVEIAEGEENIFGVSDGFQKLFDTGLLGAIITTIVASISWQLVASAFPIAFLSNPFTYIFLRICLVLEAIGICSGAWVLAAIHKKVAGFQRDEVYIGTAEERAAKDMSDDSDQLHLGPGHLVKLPGFAEHAPTALKDLMMADPSVADYLKSIHEMESGKANGEGSETRRTGSSEADE

Key:
PtSIT1 [1] = target: T1, PtSIT1 (Phaeodactylum tricornutum, UniProt B7T1F4, Q104A); assay: biochemical
T1 construct: gene SIT1

PtSIT1 [2] = target: T2, PtSIT1 (Phaeodactylum tricornutum, UniProt B7T1F4); assay: biochemical
T2 construct: gene SIT1

PtSIT1 [3] = target: T3, PtSIT1 (Phaeodactylum tricornutum, UniProt B7T1F4, Q321A); assay: biochemical
T3 construct: gene SIT1

purified protein = substrate: O[Si](O)(O)O; assay: purified protein; settings: inward Na+ gradient (150 mM NaCl outside), valinomycin, 50 mM Tris, 150 mM KCl inside, pH 7.4, error s.e.m. of fit

T3 sequence (B7T1F4 1-512 Q321A): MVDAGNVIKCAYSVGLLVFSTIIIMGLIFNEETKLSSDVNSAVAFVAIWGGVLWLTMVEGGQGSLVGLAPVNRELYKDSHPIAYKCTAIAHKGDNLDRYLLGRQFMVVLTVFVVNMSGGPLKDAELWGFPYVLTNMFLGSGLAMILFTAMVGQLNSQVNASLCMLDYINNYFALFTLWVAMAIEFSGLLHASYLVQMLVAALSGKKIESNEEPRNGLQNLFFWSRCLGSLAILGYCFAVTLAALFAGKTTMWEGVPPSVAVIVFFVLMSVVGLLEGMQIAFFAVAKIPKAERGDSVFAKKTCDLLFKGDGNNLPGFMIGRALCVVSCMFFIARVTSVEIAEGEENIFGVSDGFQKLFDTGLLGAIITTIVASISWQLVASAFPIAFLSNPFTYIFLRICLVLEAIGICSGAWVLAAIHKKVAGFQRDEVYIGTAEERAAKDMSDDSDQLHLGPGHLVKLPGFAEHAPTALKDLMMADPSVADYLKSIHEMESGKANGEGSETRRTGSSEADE
T1 sequence (B7T1F4 1-512 Q104A): as the sequence (B7T1F4 1-512 Q321A) above, with Q104A, A321Q counted along it

Row | Molecule | Kd (PtSIT1 [1]) [µM] | Kd (PtSIT1 [2]) [µM] | Kd (PtSIT1 [3]) [µM] | Km (purified protein) [µM]
1 | O[Si](O)(O)O [silicic acid] | 25.5 ± 11 | 2.9 ± 2.3 | 13.3 ± 8 | –
2 | B1 | – | – | – | 19.1 ± 4.5
